Data taken from PMC9104013, “Role of Polyamine-Induced Dimerization of Antizyme in Its Cellular Functions” (International Journal of Molecular Sciences, 2022).

Key:
[1] = test system: hair follicle cycle; parameters: method as in PMID 19956989; details: mice; cited from earlier work
[2] = target: T1, ODC (Homo sapiens, UniProt P11926); assay: In vitro effect of Spd and its analogues on ODC activity in cytosolic extract; type: biochemical; details: 1 mM, ODC-enriched DU145 cell sample, 30 min, +37 °C
T1 construct: ODC-enriched lysate was prepared from subconfluent DU145 cells 6 h after medium change; endogenous in cells; host or cells: DU145 cells (cytosolic extract)
T1 sequence (P11926 1-461): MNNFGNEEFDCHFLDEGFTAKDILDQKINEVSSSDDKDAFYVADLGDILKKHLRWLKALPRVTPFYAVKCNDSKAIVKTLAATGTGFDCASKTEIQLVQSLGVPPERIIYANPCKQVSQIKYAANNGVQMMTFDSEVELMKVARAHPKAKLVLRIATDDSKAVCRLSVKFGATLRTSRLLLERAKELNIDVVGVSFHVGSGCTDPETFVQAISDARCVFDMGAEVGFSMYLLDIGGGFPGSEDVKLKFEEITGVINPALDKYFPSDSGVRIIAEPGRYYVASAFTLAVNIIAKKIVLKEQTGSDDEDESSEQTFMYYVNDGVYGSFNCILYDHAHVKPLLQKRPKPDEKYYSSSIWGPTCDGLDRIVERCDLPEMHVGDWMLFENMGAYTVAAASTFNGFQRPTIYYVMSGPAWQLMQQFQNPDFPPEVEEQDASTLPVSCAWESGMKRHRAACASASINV
Method: (§1) ODC-enriched lysate was prepared from subconfluent DU145 cells 6 h after medium change by lysing the cells in buffer containing 25 mM Tris-HCl, pH 7.4, 1 mM DTT, and 0.01% Tween-80. OAZ1-enriched lysate was prepared from OAZ1-overexpressing DU145 cells in the same buffer. The lysate was cleared by centrifugation, and the endogenous polyamines were removed by ultrafiltration through 3K-cutoff filter and washing twice with lysis buffer. In experiment 1, ODC-enriched cytoplasmic extract (~100 μg of total protein) was incubated for 30 min at +37 °C in the presence of 1 mM Spd or analogues before ODC activity assay. In experiment 2, ODC-enriched cytoplasmic extract (~100 μg of total protein) was incubated for 30 min at +37 °C with OAZ1-enriched cytoplasmic extract (~100 μg of total protein) in the presence of 1 mM Spd or analogues before ODC activity assay.

[3] = test system: ODC; assay: as above; type: biochemical; details: 1 mM, ODC-enriched extract plus extract from OAZ1-overexpressing cells
Method: as §1

| SMILES | Hair follicle cycle [1] | Effect of direct addition on ODC activity in vitro [2] | Effect on the ability of OAZ1 to inhibit ODC activity in vitro [3] |
| --- | --- | --- | --- |
| CC(N)CCNCCCCN (stereo not drawn) [1-MeSpd] | activate the hair follicle cycle | – | – |
| NCCCCNCCCN [Spd, spermidine] | – | did not affect ODC activity | did not affect the ability of OAZ1 to inhibit ODC activity |
